By IC50 is commonly meant the midpoint of a concentration-inhibition curve.

Chain of glucocorticoid receptor (GR) recombinant ligand binding domain (LBD) (P04150 524-758): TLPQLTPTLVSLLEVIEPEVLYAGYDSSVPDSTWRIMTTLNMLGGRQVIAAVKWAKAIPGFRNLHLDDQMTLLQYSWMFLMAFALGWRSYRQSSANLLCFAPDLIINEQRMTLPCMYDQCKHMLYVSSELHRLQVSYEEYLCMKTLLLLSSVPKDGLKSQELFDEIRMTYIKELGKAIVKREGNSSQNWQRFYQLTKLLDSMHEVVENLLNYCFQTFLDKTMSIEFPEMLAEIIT

In this assay the target is glucocorticoid receptor (GR) recombinant ligand binding domain (LBD) (Homo sapiens (Human), UniProt P04150). Kind of assay: GR binding fluorescence polarisation (FP) assay. The conditions noted are these: displacement of fluorescently tagged ligand. The procedure:
Binding of test compounds to the glucocorticoid receptor (GR) is determined using a fluorescence polarisation (FP) assay utilising a recombinant ligand binding domain (LBD) of GR. The test compounds are assessed by their ability to displace a fluorescently tagged ligand and detection of the resulting decrease in fluorescence polarisation.
Background: Fluorescence polarisation rises when a labelled molecule tumbles more slowly, as on binding a larger partner.
Turning to “1-(4-fluorophenyl)-5-(4-(methoxymethyl)-1-((1-propyl-1H-pyrazol-4-yl)sulfonyl)piperidin-4-yl)-1H-indazole [Example 23]”, the concentration for half-maximal inhibition (IC50) is 1300 nM. In the case of `C[C@@H]1CN(C(=O)c2ccccc2)CCN1c1ccc2c(cnn2-c2ccc(F)cc2)c1` [Example 2, (R)-(4-(1-(4-fluorophenyl)-1H-indazol-5-yl)-3-methylpiperazin-1-yl)(phenyl)methanone] it was 1940 nM; in that of `CCCn1cc(S(=O)(=O)N2CCN(c3ccc4c(cnn4-c4ccc(F)cc4)c3)C3(CC3)C2)cn1` [Example 3, 1-(4-fluorophenyl)-5-(7-((1-propyl-1H-pyrazol-4-yl)sulfonyl)-4,7-diazaspiro[2.5]octan-4-yl)-1H-indazole], 206 nM.

Take `CCCn1cc(S(=O)(=O)N[C@H]2CCN(c3cc4cnn(-c5ccc(F)cc5)c4cc3C)C2)cn1` [Example 4, (S)—N-(1-(1-(4-fluorophenyl)-6-methyl-1H-indazol-5-yl)pyrrolidin-3-yl)-1-propyl-1H-pyrazole-4-sulfonamide]: the IC50 is 2 nM. In the case of `CCCn1cc(S(=O)(=O)N(C)[C@H]2CCN(c3cc4cnn(-c5ccc(F)cc5)c4cc3C)C2)cn1` [Example 5, (S)—N-(1-(1-(4-fluorophenyl)-6-methyl-1H-indazol-5-yl)pyrrolidin-3-yl)-N-methyl-1-propyl-1H-pyrazole-4-sulfonamide] it was 126 nM; in that of `Cc1cc2c(cnn2-c2ccc(F)cc2)cc1N1CCN(S(C)(=O)=O)CC1=O` [Example 7, 1-(1-(4-fluorophenyl)-6-methyl-1H-indazol-5-yl)-4-(methylsulfonyl)piperazin-2-one], 6110 nM; in that of `CCCn1cc(S(=O)(=O)N2CC[C@@H](c3ccc4c(cnn4-c4ccc(F)cc4)c3)C[C@H]2C)cn1` [Example 9, 1-(4-fluorophenyl)-5-((2R,4R)-2-methyl-1-((1-propyl-1H-pyrazol-4-yl)sulfonyl)piperidin-4-yl)-1H-indazole], 527 nM. Next, `CCCn1cc(S(=O)(=O)N2CC=C(c3cc4cnn(-c5ccc(F)cc5)c4cc3C)C[C@H]2C)cn1` [Example 11, (R)-1-(4-fluorophenyl)-6-methyl-5-(2-methyl-1-((1-propyl-1H-pyrazol-4-yl)sulfonyl)-1,2,3,6-tetrahydropyridin-4-yl)-1H-indazole]: 258 nM. Next, `CCCn1cc(S(=O)(=O)N2CC[C@@H](c3cc4cnn(-c5ccc(F)cc5)c4cc3C)C[C@H]2C)cn1` [Example 12, 1-(4-fluorophenyl)-6-methyl-5-((2R,4R)-2-methyl-1-((1-propyl-1H-pyrazol-4-yl)sulfonyl)piperidin-4-yl)-1H-indazole]: 236 nM. In the case of `CCCn1cc(S(=O)(=O)N2CC[C@H](c3cc4cnn(-c5ccc(F)cc5)c4cc3C)C[C@H]2C)cn1` [Example 13, 1-(4-fluorophenyl)-6-methyl-5-((2R,4S)-2-methyl-1-((1-propyl-1H-pyrazol-4-yl)sulfonyl)piperidin-4-yl)-1H-indazole], the IC50 was found to be 82 nM. In the case of `O=S(=O)(c1cnn(CC2CC2)c1)N1CCN(c2ccc3c(cnn3-c3ccc(F)cc3)c2)C[C@H]1CO` [Example 14, (S)-(1-((1-(cyclopropylmethyl)-1H-pyrazol-4-yl)sulfonyl)-4-(1-(4-fluorophenyl)-1H-indazol-5-yl)piperazin-2-yl)methanol] it was 357 nM; in that of `COC[C@@H]1CN(c2ccc3c(cnn3-c3ccc(F)cc3)c2)CCN1S(=O)(=O)c1cnn(CC2CC2)c1` [Example 15, (S)-5-(4-((1-(cyclopropylmethyl)-1H-pyrazol-4-yl)sulfonyl)-3-(methoxymethyl)piperazin-1-yl)-1-(4-fluorophenyl)-1H-indazole], 455 nM; in that of `CCCn1cc(S(=O)(=O)N2CCC(C(=O)OCC)(c3ccc4c(cnn4-c4ccc(F)cc4)c3)CC2)cn1` [Example 21, Ethyl 4-(1-(4-fluorophenyl)-1H-indazol-5-yl)-1-((1-propyl-1H-pyrazol-4-yl)sulfonyl)piperidine-4-carboxylate], 884 nM.

On to `CCCn1cc(S(=O)(=O)N2CCC(C(=O)N3CCCC3)(c3cc4cnn(-c5ccc(F)cc5)c4cc3C)CC2)cn1` [Example 22, (4-(1-(4-fluorophenyl)-6-methyl-1H-indazol-5-yl)-1-((1-propyl-1H-pyrazol-4-yl)sulfonyl)piperidin-4-yl)(pyrrolidin-1-yl)methanone], for which the IC50 was determined as 857 nM. Next, `Cn1cc(S(=O)(=O)C2CCN(c3ccc4c(cnn4-c4ccc(F)cc4)c3)CC2)cn1` [Example 33, 1-(4-fluorophenyl)-5-(4-((1-methyl-1H-pyrazol-4-yl)sulfonyl)piperidin-1-yl)-1H-indazole]: 67 nM. Next, `Cn1cc(S(=O)(=O)N2CCN(c3ccc4c(cnn4-c4ccc(F)cc4)c3)[C@H](Cc3ccccc3)C2)cn1` [Example 34]: 1100 nM.

For `C[C@@H]1CN(S(=O)(=O)C2CCCC2)CCN1c1ccc2c(cnn2-c2ccc(F)cc2)c1` [Example 35], the IC50 stood at 1810 nM. For `C[C@H]1CN(S(=O)(=O)c2cnn(C)c2)CCN1c1ccc2c(cnn2-c2ccc(F)cc2)c1` [Example 36], the IC50 turned out to be 3550 nM. Next, `C[C@@H]1CN(c2ccc3c(cnn3-c3ccc(F)cc3)c2)CCN1S(=O)(=O)c1cnn(C)c1` [Example 37]: 396 nM; `C[C@H]1CN(c2ccc3c(cnn3-c3ccc(F)cc3)c2)CCN1S(=O)(=O)c1cnn(C)c1` [Example 38]: 1950 nM. On to `C[C@@H]1CN(c2ccc3c(cnn3-c3ccc(F)cc3)c2)CCN1S(=O)(=O)c1ccc(F)c(F)c1` [Example 40], for which the IC50 came to 546 nM. Next, `Cn1cc(S(=O)(=O)N2CCN(c3ccc4c(cnn4-c4ccc(F)cc4)c3)C[C@H]2Cc2ccccc2)cn1` [Example 41]: 937 nM.

As for `CC(C)C[C@@H]1CN(c2ccc3c(cnn3-c3ccc(F)cc3)c2)CCN1S(=O)(=O)c1cnn(C)c1` [Example 42], the half-inhibitory concentration (IC50) came to 2320 nM. In the case of `CC1(C)CN(c2ccc3c(cnn3-c3ccc(F)cc3)c2)CCN1S(C)(=O)=O` [Example 45] it was 562 nM; in that of `CCCn1cc(S(=O)(=O)N2CCN(c3ccc4c(cnn4-c4ccc(F)cc4)c3)CC2(C)C)cn1` [Example 46], 1130 nM.

Consider `CS(=O)(=O)N1C[C@@H]2C[C@H]1CN2c1ccc2c(cnn2-c2ccc(F)cc2)c1` [Example 47], for which the concentration for half-maximal inhibition (IC50) stood at 1410 nM. In the case of `CS(=O)(=O)N1CC2CC(C1)N2c1ccc2c(cnn2-c2ccc(F)cc2)c1` [Example 48] it was 4050 nM; in that of `CCCn1cc(S(=O)(=O)N2CCN(c3ccc4c(cnn4-c4ccc(F)cc4)c3C)C[C@H]2C)cn1` [Example 49], 8220 nM; in that of `C[C@@H]1CN(S(C)(=O)=O)[C@@H](C)CN1c1ccc2c(cnn2-c2ccc(F)cc2)c1` [Example 51], 360 nM. Regarding `COC(=O)C1CN(c2ccc3c(cnn3-c3ccc(F)cc3)c2)CCN1S(=O)(=O)c1cnn(CC2CC2)c1` (centres unmarked) [Example 52], the IC50 turned out to be 700 nM.

Consider `C[C@@H]1CN(c2ccc3c(cnn3-c3ccc(F)cc3)c2)CCN1S(=O)(=O)c1cnn(C2CCOCC2)c1` [Example 53], for which the concentration for half-maximal inhibition (IC50) came out at 244 nM. Next, `Cc1nn(C2CCCC2)cc1S(=O)(=O)N1CCN(c2ccc3c(cnn3-c3ccc(F)cc3)c2)C[C@H]1C` [Example 54]: 142 nM. Next, `CCCn1cc(S(=O)(=O)N2C[C@H](C)N(c3ccc4c(cnn4-c4ccc(F)cc4)c3)C[C@H]2C)cn1` [Example 55]: 21 nM. In the case of `CCCn1cc(S(=O)(=O)N2CCN(c3ccc4c(cnn4-c4ccc(F)cc4)c3)C[C@H]2C)c(C)n1` [Example 57] it was 249 nM. Regarding `C[C@@H]1CN(S(C)(=O)=O)[C@H](C)CN1c1ccc2c(cnn2-c2ccc(F)cc2)c1` [Example 62], the IC50 was determined as 431 nM. Next, `CCCNS(=O)(=O)N1CCN(c2ccc3c(cnn3-c3ccc(F)cc3)c2)C[C@H]1C` [Example 63]: 215 nM; `CC(C)Cn1cc(S(=O)(=O)N2CCN(c3ccc4c(cnn4-c4ccc(F)cc4)c3)C[C@H]2C)cn1` [Example 64]: 151 nM. For `CCCn1cc(S(=O)(=O)N2CCN(c3ccc4c(cnn4-c4ccc(F)cc4)c3)CC23CCC3)cn1` [Example 66], the IC50 came out at 429 nM.

With `CCCn1cc(S(=O)(=O)N2CCN(c3cc4cnn(-c5ccc(F)cc5)c4cn3)CC23CC3)cn1` [Example 69], the IC50 was 1160 nM.

For `CCCn1cc(S(=O)(=O)N2CCN(c3cnc4c(cnn4-c4ccc(F)cc4)c3)CC23CC3)cn1` [Example 71], the IC50 worked out at 238 nM. Next, `CCCn1cc(S(=O)(=O)N2CCN(c3ccc4c(cnn4-c4ccc(F)cc4)n3)CC23CC3)cn1` [Example 72]: 3740 nM.

In the case of `CCCn1cc(S(=O)(=O)N2CCN(c3cc4nnn(-c5ccc(F)cc5)c4cc3C)CC23CC3)cn1` [Example 74], the half-maximal inhibitory concentration (IC50) was determined as 66 nM. In the case of `CCCn1cc(S(=O)(=O)N2CCN(c3cc4cnn(-c5ccc(OC)cc5)c4cc3C)C[C@H]2C)cn1` [Example 75] it was 325 nM. For the molecule `CCCn1cc(S(=O)(=O)N2CCN(c3cc4cnn(-c5ccc(F)c(F)c5)c4cc3C)C[C@H]2C)cn1` [Example 76], the concentration for half-maximal inhibition (IC50) was found to be 83 nM. In the case of `CCCn1cc(S(=O)(=O)N2CCN(c3cc4cnn(-c5ccc(OC)nc5)c4cc3C)C[C@H]2C)cn1` [Example 77] it was 1040 nM. In the case of `CCCn1cc(S(=O)(=O)N2C3CCC2CN(c2cc4cnn(-c5ccc(F)cc5)c4cc2C)C3)cn1` [Example 83] it was 515 nM; in that of `Cc1cc2c(cnn2-c2ccc(F)cc2)cc1N1CCC2(CCCN2S(C)(=O)=O)CC1` [Example 88], 7230 nM; in that of `CCCn1cc(S(=O)(=O)N2CCCC23CCN(c2cc4cnn(-c5ccc(F)cc5)c4cc2C)CC3)cn1` [Example 89], 434 nM. In the case of `Cc1cc2c(cnn2-c2ccc(F)cc2)cc1N1CCC2(CCN(S(C)(=O)=O)CC2)C1` [Example 95] it was 612 nM; in that of `Cc1cc2c(cnn2-c2ccc(F)cc2)cc1N1CCC2(CCN(S(=O)(=O)c3cnn(C)c3)CC2)C1` [Example 96], 2560 nM.

Values taken from patent publication US11787780B2 (CORCEPT THERAPEUTICS INCORPORATED, priority 2020, dated 2023).
